Several values for one entry are separate records, joined by “and”; a condition that tells them apart may be missing. Equal values may be shown once. Read-outs that look alike come from different tables or passages of the source.
Tests used:
[1] = Stability in simulated gastric and simulated intestinal fluids; type: physicochemical
Description: Such study is conducted with the aim of evaluating the stability of the compound (IV) at […] in absence of enzymes of the intestinal bacterial flora.
The stability of the compound (IV) is compared to that of known reference standards.

[2] = In vivo pharmacokinetic in the rat after i.v. and p.o. administration of compound (IV)
[3] = compound (IV) i.v. 5 mg/kg, rat, individual rats
[4] = compound (IV) i.v. 5 mg/kg, rat, individual rats, 5 mg/kg
[5] = compound (IV) oral gavage 50 mg/kg, rat, individual rats, 50 mg/kg

CCCC(=O)Oc1ccc(N)cc1C(=O)O.Cl [Compound (IV), 5-amino-2-(butyryloxy)benzoic acid]
% Residue ([1]; SGF, 30 min incubation): 97.3 ± 1.1% | % Residue ([1]; SGF, 60 min incubation): 99.9 ± 0.9% | % Residue ([1]; SIF, 30 min incubation): 97.4 ± 4.1% | % Residue ([1]; SIF, 60 min incubation): 103.2 ± 3.5% | Stability in SIF and SGF ([1]; both media): stable in both media | Pharmacokinetic parameters ([2]; administered p.o. and i.v. in rats): good pharmacokinetic parameters | Metabolism in vivo ([2]; after i.v. and p.o. treatment, rat): metabolised quickly | Tlast [2, 3]: 1440 min | Tmax [2, 3]: 2 min | AUCinf [2, 4]: 18700 ng·min/mL and 22424 ng·min/mL | AUClast [2, 4]: 17271 ng·min/mL and 21300 ng·min/mL | Cl [2, 4]: 229.9 mL/min/kg and 191.8 mL/min/kg | Clast [2, 4]: 1.8 ng/mL and 1.7 ng/mL | Cmax [2, 4]: 529 ng/mL and 851.2 ng/mL | MRT [2, 4]: 209 min and 175 min | T½ [2, 4]: 547.1 min and 451.8 min | Vdss [2, 4]: 115.3 L/kg and 51.9 L/kg | Tlast Mean ([2]; compound (IV) i.v. 5 mg/kg, rat, mean): 1440 min | AUCinf [2, 5]: 3985 ng·min/mL and 5954 ng·min/mL | AUClast [2, 5]: 3943 ng·min/mL and 5925 ng·min/mL | Clast [2, 5]: 2.9 ng/mL and 0.8 ng/mL and 1.3 ng/mL | Cmax [2, 5]: 104 ng/mL and 174 ng/mL | MRTlast [2, 5]: 48 min and 32 min and 23 min | Tlast [2, 5]: 240 min (2×) and 120 min | Tmax [2, 5]: 30 min and 15 min and 5 min | Tlast Mean ([2]; compound (IV) oral gavage 50 mg/kg, rat, mean): 200 min | bioavailability ([2]; plasma, oral gavage 50 mg/kg vs i.v. 5 mg/kg, rat, read-out: Mean Fpo 0_inf (%) (mean p.o. bioavailability)): 2.4% | AUC(0-inf) ([2]; rat, plasma, iv, 5 mg/kg, compound (IV) i.v. 5 mg/kg, rat, individual rats, read-out: AUCinf (converted)): 341 ng·h/mL | AUC(0-t) ([2]; rat, plasma, iv, 5 mg/kg, compound (IV) i.v. 5 mg/kg, rat, individual rats, read-out: AUClast (converted)): 296 ng·h/mL | clearance ([2]; rat, plasma, iv, 5 mg/kg, compound (IV) i.v. 5 mg/kg, rat, individual rats, read-out: Cl): 210 mL/min/kg | concentration at 1440 min ([2]; rat, plasma, iv, 5 mg/kg, compound (IV) i.v. 5 mg/kg, rat, individual rats, read-out: Clast): 2.9 ng/mL | Cmax ([2]; rat, plasma, iv, 5 mg/kg, compound (IV) i.v. 5 mg/kg, rat, individual rats, read-out: Cmax): 598 ng/mL | MRT ([2]; rat, plasma, iv, 5 mg/kg, compound (IV) i.v. 5 mg/kg, rat, individual rats, read-out: MRT (converted)): 273 min | Tmax ([2]; rat, plasma, iv, 5 mg/kg, compound (IV) i.v. 5 mg/kg, rat, individual rats, read-out: Tmax (converted)): 2 min | half-life ([2]; rat, plasma, iv, 5 mg/kg, compound (IV) i.v. 5 mg/kg, rat, individual rats, read-out: T½): 638 min | AUC(0-inf) ([2]; rat, plasma, iv, 5 mg/kg, compound (IV) i.v. 5 mg/kg, rat, mean, read-out: AUCinf Mean (converted)): 342 ng·h/mL | AUC(0-t) ([2]; rat, plasma, iv, 5 mg/kg, compound (IV) i.v. 5 mg/kg, rat, mean, read-out: AUClast Mean (converted)): 313 ng·h/mL | clearance ([2]; rat, plasma, iv, 5 mg/kg, compound (IV) i.v. 5 mg/kg, rat, mean, read-out: Cl Mean): 211 mL/min/kg | concentration at 1440 min ([2]; rat, plasma, iv, 5 mg/kg, compound (IV) i.v. 5 mg/kg, rat, mean, read-out: Clast Mean): 2.1 ng/mL | Cmax ([2]; rat, plasma, iv, 5 mg/kg, compound (IV) i.v. 5 mg/kg, rat, mean, read-out: Cmax Mean): 659 ng/mL | MRT ([2]; rat, plasma, iv, 5 mg/kg, compound (IV) i.v. 5 mg/kg, rat, mean, read-out: MRT Mean (converted)): 219 min | Tmax ([2]; rat, plasma, iv, 5 mg/kg, compound (IV) i.v. 5 mg/kg, rat, mean, read-out: Tmax Mean (converted)): 2 min | half-life ([2]; rat, plasma, iv, 5 mg/kg, compound (IV) i.v. 5 mg/kg, rat, mean, read-out: T½ Mean): 546 min | Vd ([2]; rat, plasma, iv, 5 mg/kg, compound (IV) i.v. 5 mg/kg, rat, mean, read-out: Vdss Mean): 83.5 L/kg | concentration at 200 min ([2]; rat, plasma, oral, 50 mg/kg, compound (IV) oral gavage 50 mg/kg, rat, mean, read-out: Clast Mean): 2.8 ng/mL | concentration at 4 h ([2]; rat, plasma, po, 50 mg/kg, after p.o. administration, rat, 4 hours): 1 ng/mL | Cmax ([2]; rat, plasma, po, 50 mg/kg, after p.o. administration, rat, read-out: Cmax): 95 ng/mL | AUC(0-inf) ([2]; rat, plasma, po, 50 mg/kg, compound (IV) oral gavage 50 mg/kg, rat, individual rats, read-out: AUCinf (converted)): 76.5 ng·h/mL | AUC(0-t) ([2]; rat, plasma, po, 50 mg/kg, compound (IV) oral gavage 50 mg/kg, rat, individual rats, read-out: AUClast (converted)): 67.4 ng·h/mL | Cmax ([2]; rat, plasma, po, 50 mg/kg, compound (IV) oral gavage 50 mg/kg, rat, individual rats, read-out: Cmax): 89 ng/mL | AUC(0-inf) ([2]; rat, plasma, po, 50 mg/kg, compound (IV) oral gavage 50 mg/kg, rat, mean, read-out: AUCinf Mean (converted)): 80.7 ng·h/mL | AUC(0-t) ([2]; rat, plasma, po, 50 mg/kg, compound (IV) oral gavage 50 mg/kg, rat, mean, read-out: AUClast Mean (converted)): 77.3 ng·h/mL | Cmax ([2]; rat, plasma, po, 50 mg/kg, compound (IV) oral gavage 50 mg/kg, rat, mean, read-out: Cmax Mean): 122 ng/mL | MRT last ([2]; rat, plasma, po, 50 mg/kg, compound (IV) oral gavage 50 mg/kg, rat, mean, read-out: MRTlast Mean (converted)): 35 min | Tmax ([2]; rat, plasma, po, 50 mg/kg, compound (IV) oral gavage 50 mg/kg, rat, mean, read-out: Tmax Mean (converted)): 16.7 min

From patent US9193673B2, “Derivatives of mesalazine, process of their preparation and their use in the treatment of intestinal inflammatory diseases” (SOFAR SPA, priority 2010, dated 2015)
